Measured values taken from patent US9695155B2, “Herbicidal substituted pyrimidinyloxy benzene compounds” (E. I. DU PONT DE NEMOURS AND COMPANY, priority 2013, dated 2017).

Legend:
rice [1] = assay: Test B flooded paddy test; format: in vivo, Oryza sativa; conditions: Flood, 250 g ai/ha; 0 to 100 scale where 0 is no effect and 100 is complete control
Outline: (§1)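 Plants at 2-leaf stage; pots flooded to 3 cm above soil and compound applied directly into paddy water, depth held throughout. After 13 to 15 days in greenhouse, visual rating versus controls on 0 (no effect) to 100 (complete control) scale.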

barnyardgrass [2] = assay: Test C flooded paddy test; format: in vivo, Echinochloa crus-galli; conditions: Flood, scale 0 to 100 (0 no effect, 100 complete control), 13 to 15 days
Outline: (§2)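 Greenhouse pots flooded to 3 cm above soil at time of treatment received compound via the water, which stayed at that level.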

velvetleaf [3] = assay: Test A postemergence; format: in vivo, Abutilon theophrasti; conditions: 0 to 100 scale where 0 is no effect and 100 is complete control
Outline: (§3)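 Visual 0–100 rating (100 = complete control) taken about 10 d post-treatment relative to untreated checks. Preemergence: directed soil spray on sown loam/sand pots. Postemergence: seedlings 2–10 cm, 1–2 leaf. Non-phytotoxic solvent formulation with surfactant.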

large (Lg) crabgrass [4] = assay: Test A preemergence; format: in vivo, Digitaria sanguinalis
Outline: as §3

velvetleaf [5] = assay: Test A preemergence; format: in vivo, Abutilon theophrasti
Outline: as §3

morningglory [6] = assay: Test A postemergence; format: in vivo, Ipomoea spp.; conditions: 0 to 100 scale where 0 is no effect and 100 is complete control
Outline: as §3

pigweed [7] = assay: Test A postemergence; format: in vivo, Amaranthus retroflexus; conditions: 0 to 100 scale where 0 is no effect and 100 is complete control
Outline: as §3

Heteranthera limosa = assay: Test B flooded paddy test; format: in vivo; conditions: Flood, 250 g ai/ha; 0 to 100 scale where 0 is no effect and 100 is complete control
Outline: as §1

sedge, umbrella [8] = assay: Test B flooded paddy test; format: in vivo, Cyperus difformis; conditions: Flood, 250 g ai/ha; 0 to 100 scale where 0 is no effect and 100 is complete control
Outline: as §1

barnyardgrass [9] = assay: Test A preemergence; format: in vivo, Echinochloa crus-galli
Outline: as §3

corn [10] = assay: Test A preemergence; format: in vivo, Zea mays
Outline: as §3

rice [11] = assay: Test C flooded paddy test; format: in vivo, Oryza sativa; conditions: Flood, scale 0 to 100 (0 no effect, 100 complete control), 13 to 15 days
Outline: as §2

large (Lg) crabgrass [12] = assay: Test A postemergence; format: in vivo, Digitaria sanguinalis
Outline: as §3

sedge, umbrella [13] = assay: Test C flooded paddy test; format: in vivo, Cyperus difformis; conditions: Flood, scale 0 to 100 (0 no effect, 100 complete control), 13 to 15 days
Outline: as §2

barnyardgrass [14] = assay: Test B flooded paddy test; format: in vivo, Echinochloa crus-galli; conditions: Flood, 250 g ai/ha; 0 to 100 scale where 0 is no effect and 100 is complete control
Outline: as §1

barnyardgrass [15] = assay: Test A postemergence; format: in vivo, Echinochloa crus-galli
Outline: as §3

corn [16] = assay: Test A postemergence; format: in vivo, Zea mays
Outline: as §3

wheat [17] = assay: Test A preemergence; format: in vivo, Triticum aestivum
Outline: as §3

pigweed [18] = assay: Test A preemergence; format: in vivo, Amaranthus retroflexus
Outline: as §3

ducksalad = assay: Test C flooded paddy test; format: in vivo, Heteranthera limosa; conditions: Flood, scale 0 to 100 (0 no effect, 100 complete control), 13 to 15 days
From the text: At time of treatment, test pots were flooded to 3 cm above the soil surface, treated by application of test compounds directly to the paddy water, and then maintained at that water depth for the duration of the test. Treated plants and controls were maintained in a greenhouse for 13 to 15 days, after which time all species were compared to controls and visually evaluated. […] A dash (-) response means no test result.

wheat [19] = assay: Test A postemergence; format: in vivo, Triticum aestivum; conditions: 0 to 100 scale where 0 is no effect and 100 is complete control
Outline: as §3

giant foxtail [20] = assay: Test A postemergence; format: in vivo, Setaria faberii; conditions: 0 to 100 scale where 0 is no effect and 100 is complete control
Outline: as §3

giant foxtail [21] = assay: Test A preemergence; format: in vivo, Setaria faberii
Outline: as §3

morningglory [22] = assay: Test A preemergence; format: in vivo, Ipomoea spp.
Outline: as §3

[23] = 125 g ai/ha, 0 to 100 scale where 0 is no effect and 100 is complete control
[24] = 500 g ai/ha, 0 to 100 scale, 0 no effect, 100 complete control, approx. 10 days
[25] = 500 g ai/ha, 0 to 100 scale, 0 no effect, 100 complete control

FC(F)c1cnn(-c2ccccc2Oc2ncc(Br)cn2)c1 [Compound 81]
Plant response rating, Rice (rice [1]): 0 | Plant response rating, Barnyardgrass (barnyardgrass [2]; 31 g ai/ha): 0 | Plant response rating, Barnyardgrass (barnyardgrass [2]; 62 g ai/ha): 0 | Plant response rating, Barnyardgrass (barnyardgrass [2]; 125 g ai/ha): 0 | Plant response rating, Barnyardgrass (barnyardgrass [2]; 250 g ai/ha): 0 | Plant response rating, Velvetleaf (velvetleaf [3]; 125 g ai/ha): 100 | Plant response rating, Velvetleaf (velvetleaf [3]; 500 g ai/ha): 100 | Plant response rating, Crabgrass, Large (large (Lg) crabgrass [4]; [23]): 90 | Crabgrass, Large plant response rating (large (Lg) crabgrass [4]; [24]): 100 | Plant response rating, Velvetleaf (velvetleaf [5]; [23]): 50 | Velvetleaf plant response rating (velvetleaf [5]; [24]): 100 | Plant response rating, Morningglory (morningglory [6]; 125 g ai/ha): 50 | Plant response rating, Morningglory (morningglory [6]; 500 g ai/ha): 100 | Plant response rating, Pigweed (pigweed [7]; 125 g ai/ha): 100 | Plant response rating, Pigweed (pigweed [7]; 500 g ai/ha): 100 | Plant response rating, Ducksalad (Heteranthera limosa): 90 | Plant response rating, Sedge, Umbrella (sedge, umbrella [8]): 80 | Plant response rating, Barnyardgrass (barnyardgrass [9]; [23]): 0 | Barnyardgrass plant response rating (barnyardgrass [9]; [24]): 70 | Plant response rating, Corn (corn [10]; [23]): 0 | Corn plant response rating (corn [10]; [24]): 10 | Plant response rating, Rice (rice [11]; 31 g ai/ha): 0 | Plant response rating, Rice (rice [11]; 62 g ai/ha): 0 | Plant response rating, Rice (rice [11]; 125 g ai/ha): 0 | Plant response rating, Rice (rice [11]; 250 g ai/ha): 0 | Plant response rating, Crabgrass, Large (large (Lg) crabgrass [12]; [23]): 40 | Plant response rating, Crabgrass, Large (large (Lg) crabgrass [12]; [25]): 90 | Plant response rating, Sedge, Umbrella (sedge, umbrella [13]; 31 g ai/ha): 0 | Plant response rating, Sedge, Umbrella (sedge, umbrella [13]; 62 g ai/ha): 50 | Plant response rating, Sedge, Umbrella (sedge, umbrella [13]; 125 g ai/ha): 70 | Plant response rating, Sedge, Umbrella (sedge, umbrella [13]; 250 g ai/ha): 90 | Plant response rating, Barnyardgrass (barnyardgrass [14]): 0 | Plant response rating, Barnyardgrass (barnyardgrass [15]; [23]): 50 | Plant response rating, Barnyardgrass (barnyardgrass [15]; [25]): 100 | Plant response rating, Corn (corn [16]; [23]): 50 | Plant response rating, Corn (corn [16]; [25]): 30 | Plant response rating, Wheat (wheat [17]; [23]): 10 | Wheat plant response rating (wheat [17]; [24]): 10 | Plant response rating, Pigweed (pigweed [18]; [23]): 0 | Pigweed plant response rating (pigweed [18]; [24]): 0 | Plant response rating, Ducksalad (ducksalad; 31 g ai/ha): 30 | Plant response rating, Ducksalad (ducksalad; 62 g ai/ha): 40 | Plant response rating, Ducksalad (ducksalad; 125 g ai/ha): 60 | Plant response rating, Ducksalad (ducksalad; 250 g ai/ha): 90 | Plant response rating, Wheat (wheat [19]; 125 g ai/ha): 10 | Plant response rating, Wheat (wheat [19]; 500 g ai/ha): 60 | Plant response rating, Foxtail, Giant (giant foxtail [20]; 125 g ai/ha): 50 | Plant response rating, Foxtail, Giant (giant foxtail [20]; 500 g ai/ha): 90 | Plant response rating, Foxtail, Giant (giant foxtail [21]; [23]): 80 | Foxtail, Giant plant response rating (giant foxtail [21]; [24]): 100 | Plant response rating, Morningglory (morningglory [22]; [23]): 0 | Morningglory plant response rating (morningglory [22]; [24]): 60
